Assay results as given in publication PMC8315060, “N-terminus-independent activation of c-Src via binding to a tetraspan(in) TM4SF5 in hepatocellular carcinoma is abolished by the TM4SF5 C-terminal peptide application” (Theranostics, 2021).

Legend:
Assay type in all cases: cell-based
TM4SF5 binding to c-Src = molecular target: T1, TM4SF5 binding to c-Src (Homo sapiens, UniProt O14894); assay: TM4SF5 binding to c-Src after TSAHC treatment; settings: treatment of TSAHC, stated in the discussion
T1 construct: TM4SF5WT (NM-003963, 197 amino acids); expressed in transfected cells
T1 sequence (O14894 1-197): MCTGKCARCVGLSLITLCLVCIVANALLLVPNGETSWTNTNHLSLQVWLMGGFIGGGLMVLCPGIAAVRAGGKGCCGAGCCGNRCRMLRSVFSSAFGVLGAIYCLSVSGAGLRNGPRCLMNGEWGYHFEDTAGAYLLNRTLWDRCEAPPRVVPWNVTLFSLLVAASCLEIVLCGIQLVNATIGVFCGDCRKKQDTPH
From the text: (A and B) SNU449 cells transiently transfected with the c-Src SH321 construct together with the indicated constructs were harvested (A). SNU761 cells stably expressing mock or FLAG-TM4SF5 were transiently transfected with the indicated constructs were harvested (B). The whole cell lysates (WCL) were precipitated with streptavidin beads, prior to immunoblotting. (C) SNU761 cells stably expressing mock or FLAG-TM4SF5WT (WT) were transiently transfected with the indicated construct and siRNAs against a scrambled sequence (siCont) or a sequence in PTP1B (siPTP1B). Immunoprecipitation from the WCL using anti-Flag-precoated sepharose beads was performed, before immunoblots. (D) SNU449 cells transfected with the indicated plasmids were processed for precipitation using streptavidin beads, prior to immunoblotting. (E) Stable SNU449 cells were treated with DMSO (-) or TSAHC (20 μM, +) for 24 h, before harvest, precipitation using streptavidin beads, and immunoblotting. Another cell set with TM4SF5-Flag and treated with DMSO or TSAHC as above was processed for immunofluorescence analysis. (F) SNU761 cells stably expressing TM4SF5WT were transiently transfected with the indicated siRNAs for 48 h, prior to transwell migration assay. […] Quantitative comparison ratios were calculated from the blots by measurement of band intensities using Image J and normalization of them to those of loading controls. […]

PTP1B binding to TM4SF5 = molecular target: T2, PTP1B binding to TM4SF5 (Homo sapiens, UniProt O14894); assay: Streptavidin pull-down of STrEP-TM4SF5 and immunoblot for PTP1B after TSAHC; settings: stable SNU449 cells, TSAHC 20 μM for 24 h, immunoblot, Figure 3E
T2 construct: TM4SF5WT (NM-003963, 197 amino acids); expressed in transfected cells; host or cells: SNU449 cells stably expressing STrEP-TM4SF5
T2 sequence (O14894 1-197): T1 sequence (O14894 1-197)
From the text: Co-immunoprecipitation: Whole cell extracts were precipitated with anti-FLAG antibody (Cell Signaling Technology) or […]-precoated beads (Sigma-Aldrich) in a cold room overnight prior to immunoblotting with the indicated antibodies. For co-immunoprecipitation of endogenous proteins, whole cell lysates of endogenous TM4SF5-expressing HepG2 cells were precipitated with either anti-TM4SF5 [27] or c-Src (sc-8056, clone H-12) antibody prior to immunoblotting for FAK, c-Src, and TM4SF5. Immunoprecipitated proteins were boiled in 2× SDS-PAGE sample buffer before undergoing western blotting using standard protocols. Quantification of band intensity was performed as described above.
(A and B) SNU449 cells transiently transfected with the c-Src SH321 construct together with the indicated constructs were harvested (A). SNU761 cells stably expressing mock or FLAG-TM4SF5 were transiently transfected with the indicated constructs were harvested (B). The whole cell lysates (WCL) were precipitated with streptavidin beads, prior to immunoblotting. […] Quantitative comparison ratios were calculated from the blots by measurement of band intensities using Image J and normalization of them to those of loading controls. […]

TM4SF5 = molecular target: T3, TM4SF5 (Homo sapiens, UniProt O14894); assay: Immunofluorescence of TM4SF5 localization after TSAHC; settings: TM4SF5-Flag cells, TSAHC 20 μM for 24 h, Figure 3E
T3 construct: TM4SF5WT (NM-003963, 197 amino acids); expressed in transfected cells
T3 sequence (O14894 1-197): T1 sequence (O14894 1-197)
Description: Indirect immunofluorescence: Cells maintained under normal culture conditions on glass coverslips were treated with peptides for 1 day in the absence or presence of 10 μM TSAHC, a specific TM4SF5 inhibitor [29]. The cells were incubated with either PBS (non-permeabilized) or 0.5% Triton X-100 in PBS (permeabilized) for 5 min at RT and then stained using an antibody against TAT (1:100 dilution, Cell Applications, Inc., San Diego, CA, USA). Cells treated with the CPPs were also fixed with 4% formaldehyde for 10 min at RT, incubated with 30 mM glycine for 30 min, permeabilized as described above, and then stained with antibodies against pY397FAK (Cat #: 611723, BD Transduction Laboratories, 1:500 dilution) or pY861FAK (sc-16663-R, Santa Cruz Biotechnology, 1:500 dilution). Phalloidin was also used to stain for F-actin. Immunofluorescent images were acquired on a confocal (Nikon eclipse Ti; Nikon, Melville, NY, USA) or a fluorescent microscope (BX51, Olympus, Japan).
(A and B) SNU449 cells transiently transfected with the c-Src SH321 construct together with the indicated constructs were harvested (A). […] Quantitative comparison ratios were calculated from the blots by measurement of band intensities using Image J and normalization of them to those of loading controls. […]

TM4SF5 binding to c-Src (TM4SF5 binding to c-Src): impaired TM4SF5 binding to c-Src
PTP1B binding to TM4SF5 (PTP1B binding to TM4SF5): reduced substantially
Compound: Cc1ccc(S(=O)(=O)Nc2ccc(C(=O)C=Cc3ccc(O)cc3)cc2)cc1 [TSAHC, 4-(p-toluenesulfonylamido)-4-hydroxychalcone]
membrane localization of TM4SF5 (TM4SF5): still showed membrane localization of TM4SF5
